Where two headings read alike, the source gives them in different places.
What was measured:
[1] = system: CD40L-induced proliferation of human CD19+ B cells; experiment: Inhibition of CD40L-induced human CD19+ B-cell proliferation (BrdU); format: cell-based; details: for IC50: B-cell
Procedure: Because CD40 stimulation is an important signal for B cell proliferation, soluble CD40L can concentration-dependently induce the proliferation of human B cells.
Inhibition of cell proliferation was determined in freshly isolated human CD19^+ B cells using the colorimetric cell proliferation ELISA BrdU kit from Roche Applied Science (Indianapolis, Ind.). B cells were isolated from the PBMC as follows. Briefly, cells were washed three times with medium (RPMI 1640) and incubated for 20 min at 4° C. with 20 μL/10^7 cells of anti-CD19 Microbeads (Miltenyi Biotech, Bergisch Gladbach, Germany), according to the MiniMacs protocol (Miltenyi Biotech). Cells were then purified using magnetic columns. […] Cells were cultured in 96 wells plates (100 μL/well) at a cell density of 2×10^5 cells/mL in IMDM medium supplemented with 5% FBS, 100 U/mL penicillin, streptomycin 100 μg/mL, insulin-transferrin-selenium-G (all materials from Invitrogen, San Diego, Calif.) and 10 […] (R&D Systems). […] After 48 h, BrdU labeling solution was added as recommended, and cells were cultivated for another 48 h. Detection of incorporated BrdU was carried out following the instructions of the ELISA BrdU kit.
Data are average±SD for n=3 independent experiments with triplicates for each condition using a standard BrdU assay (Roche).

human CD40-CD40L = molecular target: T1, human CD40-CD40L (Homo sapiens, UniProt P29965); experiment: Cell-free ELISA-type CD40-CD40L binding inhibition assay
T1 construct: purchased Enzo Life Sciences (San Diego, Calif.)
T1 sequence (P29965 116-261 limits assumed): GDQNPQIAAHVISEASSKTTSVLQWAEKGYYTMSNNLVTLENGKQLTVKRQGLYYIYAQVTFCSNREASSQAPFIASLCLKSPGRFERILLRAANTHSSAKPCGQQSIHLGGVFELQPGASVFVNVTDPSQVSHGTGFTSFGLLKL
Procedure: Compounds according to the disclosure were assessed for their ability to inhibit the binding of tagged ligands to plate-bound receptors using ELISA-type 96-well plate-based cell-free assays as described in the literature (see Margolles-Clark et al, J Mol Med 87:1133-1143 (2009); Margolles-Clark et al., Chem Biol Drug Des 76:305-313 (2010); Song et al., Br J Pharmacol 171:4955-4969 (2014); and Ganesan et al., Biochem Pharmacol 81:810-818 (2011)).
Recombinant receptors (hCD40:Fc, TNF-R1:Fc) and tagged ligands (hCD154, MegaCD40L, and TNF-α), were obtained from Enzo Life Sciences (San Diego, Calif.). Microtiter plates (Nunc F Maxisorp; 96-well) were coated overnight at 4° C. with 100 μL/well of Fc chimeric receptors diluted in PBS 7.2. This was followed by blocking with 200 μL/well of blocking solution (PBS 7.2, 0.05% Tween-20, 1% BSA) for 1 hour at room temperature. […] Either anti-FLAG-HRP or streptavidin-HRP conjugate was used to detect the bound FLAG-tagged or biotinylated ligand, respectively. Plates were washed three times before the addition of 120 μL/well of HRP substrate TMB (3, 3′, 5, 5′-tetramethylbenzidine) and kept in the dark for 15-30 min. The reaction was stopped using 30 μL 1M H2SO4, and the absorbance was read at 450 nm. Stock solutions of compounds at 10 mM in DMSO were used.
(§1) Typical concentrations used were as follows—receptors: 0.3 μg/mL for CD40, TNF-R1, and RANK; 0.6 μg/mL for BAFF-R, OX40, and 4-1BB; and 2 μg/mL for EGF-R-ligands: 0.02 μg/mL for CD40L, TNFα, and RANKL; 0.2 μg/ml for BAFF, OX40L, 4-1BBL; and 0.3 μg/mL for EGF. Assays were done in duplicate or triplicate per plate and repeated at least three times; the averaged data were normalized and used for data fitting and analysis. Binding data were fitted using the standard log inhibitor versus response model in GraphPad Prism to determine the corresponding IC50 values.

OX40-OX40L = molecular target: T2, OX40-OX40L (Homo sapiens, UniProt P23510+P43489); experiment: Cell-free ELISA-type OX40 binding inhibition assay; details: Table 2
T2 sequence (P43489 29-214 limits assumed): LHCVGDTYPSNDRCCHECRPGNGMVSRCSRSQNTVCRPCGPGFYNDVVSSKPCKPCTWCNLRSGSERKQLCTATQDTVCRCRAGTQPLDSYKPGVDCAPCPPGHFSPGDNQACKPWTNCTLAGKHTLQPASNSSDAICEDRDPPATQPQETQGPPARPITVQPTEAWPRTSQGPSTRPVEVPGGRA
T2 sequence (P23510 51-183 limits assumed): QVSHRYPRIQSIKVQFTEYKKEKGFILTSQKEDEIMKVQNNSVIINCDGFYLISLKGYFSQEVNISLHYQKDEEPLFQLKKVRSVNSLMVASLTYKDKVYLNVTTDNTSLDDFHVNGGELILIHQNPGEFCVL
Procedure: as §1

[2] = system: CD40L-induced AID activation in human B cells; experiment: Inhibition of CD40L-induced human B-cell function (AID activation, Ds-Red reporter, flow cytometry); format: cell-based; details: for IC50: Homo sapiens, B-cell; for inhibition of CD40L-induced human B-cell function, AID activation (in words): human B cells, flow cytometry
Procedure: Activities in blocking CD40L-induced effects were assessed in a human B cell functional assay that quantitates B-cell function by measuring AID activation via a downstream fluorescent marker using flow cytometry. Activation-induced cytidine deaminase (AID) is necessary for both class switch recombination (CSR) and somatic hypermutation (SHM) of Ig genes, which are important for the generation of high-affinity antibodies and robust humoral immune response (see Frasca et al., Methods Mol Biol 1343:107-114 (2015)). AID is encoded by the aicda gene that is exclusively expressed in B cells and is necessary for opening the DNA molecule in the switch (S) regions in order to allow CSR. […] To further validate the activity of the present compounds, an aicda-lentiviral construct containing the promoter and enhancer region of aicda fused to the reporter Ds-Red was generated and used to transfect human B cells isolated from healthy donors. In these cells, regulation of AID expression through CD40-CD40L signaling following incubation at different conditions were evaluated by Ds-Red level assessed via flow cytometry.
B cells were isolated using anti-CD19 Microbeads (Miltenyi Biotech) from PBMC collected from healthy donors, and they were purified using magnetic columns. These B cells were than transfected with an aicda-DsRed vector using a lentiviral protocol, 1.25×10^5 cells/mL of transfected B cells were stimulated with IL-4 at 0.2 μg/mL and CD40 ligand at 0.2 μg/mL in IMDM media with 10% FBS. In addition, various concentrations of candidate compounds diluted in the same media were added along with the described condition above. Also, 1 μg/ml of CpG was used as positive control for activation. After culture for 2 days at 37° C. and 5% CO2, B cells were collected, and AID activation level as represented by the level of Ds-Red expression was assessed by flow cytometry using BD LSRFortessa cell analyzer.
These are important results as they were obtained in freshly isolated human B cells, a model particularly relevant for autoimmune diseases, and they assess effects on function not just proliferation or viability.

[3] = IC50, inhibition of the CD40-CD40L interaction, cell-free binding, n=3 independent experiments
[4] = 48 h, read-out: IC50, inhibition of CD40L-induced AID activation

SMILES: O=C(Nc1ccc(-c2ccc(C(=O)Nc3ccc(C(=O)O)c4ccccc34)cc2)cc1)c1ccc([N+](=O)[O-])cc1 [Compound 25441]
- inhibition of CD40L-induced human CD19+ B-cell proliferation (in words) [1]: concentration-dependent inhibition
- IC50 [1]: ~20 µM
- IC50 (human CD40-CD40L; [3]): 0.36 µM
- IC50 (human CD40-CD40L; Table 2, read-out: IC50 CD40): 0.4 µM
- inhibition of human CD40-CD40L binding (in words) (human CD40-CD40L; cell-free binding): concentration-dependent inhibition
- IC50 (OX40-OX40L): 2.7 µM
- IC50 [2, 4]: 15.9 µM
- IC50 ([2]; read-out: IC50 B Cell): 15.9 µM
- inhibition of CD40L-induced human B-cell function, AID activation (in words) [2]: concentration-dependent inhibition

SMILES: COC(=O)c1ccc(C(=O)Nc2ccc(-c3ccc(C(=O)Nc4cccc5cccc(S(=O)(=O)O)c45)cc3)cc2)cc1 [Compound 21045]
- inhibition of CD40L-induced human CD19+ B-cell proliferation (in words) [1]: concentration-dependent inhibition
- IC50 [1]: ~20 µM
- IC50 (human CD40-CD40L; Table 2, read-out: IC50 CD40): 0.1 µM
- inhibition of human CD40-CD40L binding (in words) (human CD40-CD40L; cell-free binding): concentration-dependent inhibition
- IC50 (human CD40-CD40L; cell-free binding, n=3 independent experiments, read-out: IC50, inhibition of the CD40-CD40L interaction): 0.14 µM
- IC50 (OX40-OX40L): 135 µM
- IC50 [2, 4]: 4.5 µM
- IC50 ([2]; read-out: IC50 B Cell): 4.5 µM
- inhibition of CD40L-induced human B-cell function, AID activation (in words) [2]: concentration-dependent inhibition

SMILES: O=C(Nc1ccc(-c2ccc(C(=O)Nc3cccc4cccc(S(=O)(=O)O)c34)cc2)cc1)c1ccc([N+](=O)[O-])cc1 [Compound 21041, 8-[(4′-[4-nitrobenzamido]biphenyl-4-yl-carbonyl)amino]naphthalene-1-sulfonic acid]
- inhibition of CD40L-induced human CD19+ B-cell proliferation (in words) [1]: concentration-dependent inhibition
- IC50 (human CD40-CD40L; [3]): 0.31 µM
- IC50 (human CD40-CD40L; IC50 CD40, Table 2): 0.3 µM
- inhibition of human CD40-CD40L binding (in words) (human CD40-CD40L; cell-free binding): concentration-dependent inhibition
- IC50 (OX40-OX40L): 605 µM
- IC50 [2, 4]: 13.2 µM
- IC50 ([2]; read-out: IC50 B Cell): 13.2 µM
- inhibition of CD40L-induced human B-cell function, AID activation (in words) [2]: concentration-dependent inhibition

— patent US10562848B2, “Inhibitors of TNF superfamily costimulatory interactions and methods for uses of the same” (UNIVERSITY OF MIAMI, priority 2015, dated 2020)
